One test concerns the target T1, human GLUT1 (Homo sapiens, UniProt P11166).
T1 construct: Full length DNA was subcloned into pFastBac1 (Life Technologies) vector with a N-terminal hexahistidine tag; hexahistidine (N); made in house; host or cells: Sf21 insect cells (baculovirus, pFastBac1)
T1 sequence (P11166 1-492): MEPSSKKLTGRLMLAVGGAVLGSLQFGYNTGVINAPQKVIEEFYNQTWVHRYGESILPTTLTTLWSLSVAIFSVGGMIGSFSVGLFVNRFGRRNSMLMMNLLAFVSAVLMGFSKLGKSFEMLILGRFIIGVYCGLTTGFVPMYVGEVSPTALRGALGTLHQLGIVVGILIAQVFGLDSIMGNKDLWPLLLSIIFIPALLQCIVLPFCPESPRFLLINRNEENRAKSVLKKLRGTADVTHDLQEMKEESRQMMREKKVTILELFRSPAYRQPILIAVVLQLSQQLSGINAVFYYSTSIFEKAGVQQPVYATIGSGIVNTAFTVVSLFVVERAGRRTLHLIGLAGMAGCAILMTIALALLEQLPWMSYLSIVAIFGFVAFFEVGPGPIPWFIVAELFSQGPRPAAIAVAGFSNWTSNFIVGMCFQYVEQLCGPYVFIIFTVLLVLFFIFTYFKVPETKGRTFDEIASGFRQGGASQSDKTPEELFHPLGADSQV
Description: Glucose entrance counter-flow transport in GLUT1 proteoliposomes. Type of test: biochemical. The conditions noted are these: 2 mM compound, one minute. As for the experimental part: (§1) cDNAs of GLUT1, 3, 4 and 5 were purchased from Open Biosystems (GE Healthcare). cDNAs of GLUT2 was a gift from Prof. Graeme Bell at University of Chicago. Full length DNA was subcloned into pFastBac1 (Life Technologies) vector with a N-terminal hexahistidine tag. Bacmids were generated in DH10Bac E. coli cells (Life Technologies). Baculoviruses were produced using Cellfectin II Reagent and amplified in Sf21 insect cells (Life Technologies). Cells were maintained at 26° C., and P1 (10^6 pfu/mL) was collected from infected cells after 72 hours. SF21 cells were propagated in HyClone SFX-Insect media (GE Healthcare), supplemented with 5% fetal bovine serum (Biowest), 4.8 mM glutamine, antibiotics (100 units/mL Penicillin G and 100 μg/mL streptomycin sulfate) and amphotericin B (2.5 μg/mL). […]
(§2) For the entrance counterflow transport in proteoliposomes, the assay was started by the addition of 5 μL proteoliposomes solution (OD600 nm ˜30) to 200 μL, assay solution, containing 10 μM ^14C-radiolabeled glucose (for GLUT1 wild-type or F379H mutant and GLUT2-4) or fructose (for GLUT5 wild-type or H387F mutant and GLUT2) (Moravek Biochemicals) in 100 mM KPi buffer at pH 7.5. After one minute (or different specified time points when the time-dependent counter-flow transport activity was measured), the transport was stopped with ice-chilled quench buffer [0.1 M KPi (pH 5.5) and 0.1 M lithium chloride].

A further test concerns the target T2, GLUT1F379H (Homo sapiens, UniProt P11166, F379H).
T2 construct: Full length DNA was subcloned into pFastBac1 (Life Technologies) vector with a N-terminal hexahistidine tag; hexahistidine (N); made in house; host or cells: Sf21 insect cells (baculovirus, pFastBac1)
T2 sequence (P11166 1-492 F379H): T1 sequence (P11166 1-492) with F379H
The test is described as follows: Glucose entrance counter-flow transport in GLUT1F379H mutant proteoliposomes. It counts as biochemical. The settings on record: 2 mM compound. As for the experimental part: as §1, §2

SMILES strings stand for the structures. Where a chain is given by its changes, count along the chain named. Entries after “also recorded” stand apart in the source; their conditions may differ.

Take `CS(=O)(=O)c1ccc(Nc2ccc3c(c2)OCO3)c([N+](=O)[O-])c1` [MSNBA, N-[4-(methylsulfonyl)-2-nitrophenyl]-1,3-benzodioxol-5-amine]: the “effect on GLUT1 glucose transport” value on human GLUT1 is “did not affect; also recorded: did not influence”. Also, the “effect on GLUT1F379H glucose transport” value on GLUT1F379H is “remained insensitive; also recorded: remained unaffected”.

`O=C(CCc1ccc(O)cc1)c1c(O)cc(O)cc1O` [phloretin, reference compound]: the “effect on GLUT1 glucose transport” value on human GLUT1 was “inhibited”. Besides, the “effect on GLUT1F379H glucose transport” value at GLUT1F379H is recorded as “no longer inhibited; also recorded: ceased to inhibit”.

(Values after patent US10822325B2, “Human GLUT5 specific inhibitors and methods of treatment” (UNM RAINFOREST INNOVATIONS, priority 2015, dated 2020).)
